Columns and labels:
LLCPK1 cells = assay: Cellular lipid accumulation test in renal proximal tubule cells; format: cell-based; conditions: 3.125-25 μM; cells exposed to a mixture of oleate and palmitate, 24 hr (FIG. 31)
Description: To test whether CBDA-ME has the ability to reduce lipid accumulation in renal proximal tubule cells, we have utilized an in vitro model of fat accumulation in LLCPK1 cells. Briefly, LLCPK1 cells were maintained at 37° C. in 5% CO2 in DMEM medium supplemented with 10% FCS, 2 mM 1-glutamine, 1 mM sodium pyruvate, 100 U/mL penicillin and […] streptomycin. Free fatty acids (2:1, molar ratio, oleic and palmitic acids) were mixed with bovine serum albumin (BSA). Cells were incubated with fatty acid-BSA complex in FCS-free culture medium at 0.3 mM final concentration of fatty acid and 1% of BSA. Control cell cultures were incubated with medium containing the vehicle. Compounds were tested in a range of concentrations (as detailed in the results section) in the presence/absence of fatty acids. After 24 hr of incubation with the compounds, the cells were washed, incubated with 1 μg/mL mixture of Nile-Red/Hoechst solution for 15 mins at 37° C. protected from light. Fluorescence was measured by the Cytation-3 plate reader at ex:488 nm/em:550 for Nile-Red and Hoechst, respectively. Results were normalized to total protein levels of each well, and presented as a change in the accumulation of lipids in comparison with Vehicle-treated group.

[1] = tested on: diet-induced obesity (DIO); assay: Diet-induced obese (DIO) mice on high-fat diet, metabolic profile; format: in vivo, C57Bl/6 mice
From the text: The experimental protocol used was approved by the Institutional Animal Care and Use Committee of the Hebrew University, which is an AAALAC International accredited institute. Male 6-week-old C57Bl/6 mice were obtained from Harlan Laboratories. Mice were maintained under a 12-h light/dark cycle and fed ad libitum. To generate diet-induced obesity, the mice were fed either a high-fat diet (HFD) (60% of calories from fat, 20% from protein, and 20% from carbohydrates; Research Diet, D12492) or a standard laboratory diet (STD, 14% fat, 24% protein, 62% carbohydrates; NIH-31 rodent diet) for 14 weeks.
HFD-fed obese mice received vehicle (1% Tween80, 4% DMSO, 95% Saline) or CBDA-ME daily for 28 days by intraperitoneal (ip) injections of 40 mg/kg. Age-matched control mice on STD received vehicle daily. Body weight and food intake were monitored daily. Total body fat and lean masses were determined by EchoMRI-100H™ (Echo Medical Systems LLC, Houston, Tex., USA). 24 h urine was collected one week before euthanasia using mouse metabolic cages (CCS2000 Chiller System, Hatteras Instruments, NC, USA). At weeks 20, mice were euthanized by a cervical dislocation under deep anesthesia, the kidneys, liver, fat pads, and muscles were removed and weighed, and samples were either snap-frozen or fixed in buffered 4% formalin. Trunk blood was collected for determining the biochemical parameters.
The experimental protocol used Metabolic profile of the mice was assessed by using the Promethion High-Definition Behavioral Phenotyping System (Sable Instruments, Inc., Las Vegas, Nev., USA). Data acquisition and instrument control were performed using MetaScreen software version 2.2.18.0, and the obtained raw data were processed using ExpeData version 1.8.4 using an analysis script detailing all aspects of data transformation. Mice with free access to food and water were subjected to a standard 12 h light/12 h dark cycle, which consisted of a 48 h acclimation period followed by 24 h of sampling. Respiratory gases were measured by using the GA-3 gas analyzer (Sable Systems, Inc., Las Vegas, Nev., USA) using a pull-mode, negative-pressure system. Air flow was measured and controlled by FR-8 (Sable Systems, Inc., Las Vegas, Nev., USA), with a set flow rate of 2000 mL/min. Water vapor was continuously measured and its dilution effect on O2 and CO2 was mathematically compensated. Effective mass was calculated by [body mass]^0.75. Fat oxidation (FO) and carbohydrate oxidation (CHO) were calculated as FO=1.69×VO2−1.69×VCO2 and CHO=4.57×VCO2−3.23×VO2 and expressed as g/d/kg^eff.Mass.
Locomotor activity was quantified by the number of disruptions of infrared XYZ beam arrays with a beam spacing of 0.25 cm in the Promethion High-Definition Behavioral Phenotyping System (Sable Instruments, Inc., Las Vegas, Nev., USA).
Mice that fasted overnight were injected with glucose (1.5 g/kg, ip), followed by a tail blood collection at 0, 15, 30, 45, 60, 90, and 120 minutes. Blood glucose levels were determined using the Elite glucometer (Bayer, Pittsburgh, Pa.).
Serum and urine levels of creatinine as well as serum levels of cholesterol, triglycerides (TG), high-density lipoprotein (HDL), low-density lipoprotein (LDL), alanine aminotransferase (ALT), aspartate aminotransferase (AST), and alkaline phosphatase (ALP) were determined using the Cobas C-111 chemistry analyzer (Roche, Switzerland) […]. Creatinine clearance was calculated using urine and serum creatinine levels (CCr mL/h=Urine creatinine mg/dL×Urine volume/Serum creatinine mg/dL×24 hrs). Fasting blood glucose was measured using the Elite glucometer (Bayer, Pittsburgh, Pa.).
Liver tissues were extracted as described previously (Tam, J., et al., Cell Metab, 2012. 16(2): p. 167-79) and its triglyceride content was determined using the EnzyChrom™ Triglyceride Assay Kit (BioAssay Systems). […]

[2] = HFD mice, 40 mg/kg/d ip for 28 days
[3] = HFD mice, 40 mg/kg/d ip for 28 days (FIG. 30)
[4] = obesity related hepatocellular injury (FIG. 28)

Q: What does the source list for `C=C(C)[C@@H]1CCC(C)=CC1c1c(O)cc(CCCCC)c(C(=O)OC)c1O` (some centres unmarked) [EPM-301, cannabidiolic acid methyl ester]?
A: fat accumulation in kidney cells (lipotoxicity) (LLCPK1 cells): prevent; HDL-cholesterol [1, 2]: without changing; LDL-cholesterol [1, 2]: reduced; overweight (body weight) ([1]; HFD mice, 40 mg/kg/d ip for 28 days (FIG. 23A)): significantly reduced; adiposity (fat mass) ([1]; HFD mice, 40 mg/kg/d ip for 28 days (FIG. 23B)): significantly reduced; lean body mass ([1]; HFD mice, 40 mg/kg/d ip for 28 days (FIG. 23C)): without affecting; leptin levels ([1]; HFD mice, 40 mg/kg/d ip for 28 days (FIG. 23D)): reduction; total ambulatory activity ([1]; HFD mice, 40 mg/kg/d ip for 28 days (FIG. 25B)): without changing; HFD-induced hypertriglyceridemia (serum triglycerides) ([1]; HFD mice, 40 mg/kg/d ip for 28 days (FIG. 26A)): significantly reduced; HFD-induced hypercholesterinemia (serum cholesterol) ([1]; HFD mice, 40 mg/kg/d ip for 28 days (FIG. 26B)): significantly reduced; ratio between HDL to LDL ([1]; HFD mice, 40 mg/kg/d ip for 28 days (FIG. 26C)): Increased; fasting glucose levels ([1]; HFD mice, 40 mg/kg/d ip for 28 days (FIG. 27A)): no change; HFD-induced hepatic steatosis: elevated hepatic triglyceride levels ([1]; HFD mice, 40 mg/kg/d ip for 28 days (FIG. 29A)): completely attenuated; HFD-induced hepatic steatosis: increased fat vacuoles in the liver ([1]; HFD mice, 40 mg/kg/d ip for 28 days (FIG. 29B)): completely attenuated; HFD-induced kidney hypofiltration (creatinine clearance) [1, 3]: completely normalized; reduction in urine excretion-to-water consumption ratio [1, 3]: completely normalized; glucose intolerance (ip glucose tolerance test) ([1]; glucose 1.5 g/kg ip after overnight fast (FIG. 27B-27D)): significant reduction; utilization of fat (fat oxidation) ([1]; indirect calorimetry, similar to lean mice on STD (FIG. 24A)): downregulate; carbohydrate oxidation ([1]; indirect calorimetry, similar to lean mice on STD (FIG. 24B)): upregulate; serum levels of ALP [1, 4]: reduction; serum levels of ALT [1, 4]: reduction; serum levels of AST [1, 4]: reduction; ability to run on a wheel ([1]; similar to STD-fed animals (FIG. 25A)): increased ability
